Results reported in EPA's ToxRefDB 2.

Experiments:
[1] = test system: rat; conditions: Sub-acute repeat dose toxicity; sprague dawley; Injection; Subcutaneous; dose end: 5 day; group: systemic; systemic / in life observation / clinical signs / erythema + systemic / in life observation / clinical signs / scabbing + systemic / in life…
[2] = test system: mouse; conditions: Carcinogenicity; other; Oral; Feed; group: systemic; systemic / hematology / anemia / anemia - nos + systemic / pathology microscopic / bone marrow / hemosiderosis + systemic / pathology …
[3] = test system: rat; conditions: Subchronic oral toxicity in rodents, sprague dawley, Feed, dose end: 90 day, group: systemic
[4] = test system: rat; conditions: Combined chronic toxicity/carcinogenicity, sprague dawley, Oral, Feed, dose end: 24 month, group: systemic
[5] = test system: dog; conditions: Chronic toxicity; beagle; Oral; Capsule; dose end: 52 week; group: systemic; systemic / hematology / anemia / anemia - hemolytic + systemic / hematology / erythrocyte (rbc) count differential / erythrocyte (rbc) + …
[6] = test system: dog; conditions: Subchronic oral toxicity in nonrodent, beagle, Capsule, dose end: 13 week, group: systemic
[7] = test system: rat; conditions: Prenatal developmental toxicity study, sprague dawley, Oral, Gavage/Intubation, dose end: 15 GD
[8] = test system: mouse; conditions: Subchronic oral toxicity in rodents, Feed, dose end: 3 month, group: systemic
[9] = test system: rat; conditions: Multigenerational reproductive toxicity study, other, Oral, Feed, dose end: 2 generation
[10] = test system: rat; conditions: Subchronic oral toxicity in rodents, sprague dawley, Feed, dose end: 13 week, group: systemic, systemic / clinical chemistry / cholesterol / cholesterol + systemic / clinical chemistry / globulins / globulins + systemic / clinical …
[11] = test system: rat; conditions: Sub-acute repeat dose toxicity; sprague dawley; Oral; Feed; dose end: 28 day; group: systemic; systemic / clinical chemistry / cholesterol / cholesterol + systemic / clinical chemistry / triglycerides / triglycerides + systemic / …
[12] = test system: rabbit; conditions: Prenatal developmental toxicity study, new zealand white, Oral, Gavage/Intubation, dose end: 19 GD
[13] = test system: rat; conditions: Prenatal developmental toxicity study, sprague dawley, Oral, Gavage/Intubation, dose end: 17 GD
[14] = test system: rat; conditions: Developmental neurotoxicity study, other, Oral, Gavage/Intubation, dose end: 140 PND, group: cannot be grouped
[15] = test system: rat; conditions: Carcinogenicity; fischer; Oral; Water; dose end: 104 week; group: systemic; systemic / in life observation / body weight / body weight
[16] = test system: rat; conditions: Chronic toxicity; fischer; Oral; Feed; dose end: 115 week; group: systemic; systemic / hematology / erythrocyte (rbc) count differential / erythrocyte (rbc) + systemic / hematology / hematocrit (hct) / hematocrit (…
[17] = test system: rat; conditions: Subchronic oral toxicity in rodents, fischer, Water, dose end: 14 week, group: systemic
[18] = test system: rat; conditions: Carcinogenicity, fischer, Oral, Water, dose end: 105 week, group: systemic
[19] = test system: rat; conditions: Developmental neurotoxicity study; sprague dawley; Oral; Feed; dose end: 90 PND; group: cannot be grouped; reproductive / offspring survival early / dead fetuses / dead fetuses + systemic / in life observation / body weight / offspring (pup) …
[20] = test system: mouse; conditions: Carcinogenicity, b6c3f1, Oral, Water, dose end: 105 week, group: systemic
[21] = test system: mouse; conditions: Subchronic oral toxicity in rodents, b6c3f1, Water, dose end: 14 week
[22] = test system: rat; conditions: Subchronic oral toxicity in rodents, fischer, Water, dose end: 6 week, group: systemic
[23] = systemic / in life observation / body weight / body weight + systemic / in life observation / food consumption / food consumption + systemic…
[24] = systemic / hematology / anemia / anemia - hemolytic + systemic / in life observation / body weight / body weight + systemic / in life …
[25] = systemic / in life observation / clinical signs / alopecia
[26] = systemic / hematology / anemia / anemia - hemolytic + systemic / hematology / erythrocyte (rbc) count differential / erythrocyte (rbc) + …
[27] = group: developmental, developmental / developmental malformation / trunk / umbilical hernia
[28] = group: maternal, systemic / in life observation / clinical signs / hemorrhagic perineal discharge
[29] = group: maternal, systemic / in life observation / clinical signs / hemorrhagic perineal discharge + reproductive / reproductive performance / …
[30] = systemic / organ weight / spleen / relative to body weight
[31] = systemic / organ weight / spleen / relative to body weight + systemic / pathology microscopic / spleen / hemosiderosis + systemic / in life …
[32] = group: offspring, systemic / in life observation / body weight / offspring (pup) weight + systemic / in life observation / body weight / offspring (pup) …
[33] = group: parental, systemic / organ weight / spleen / absolute + systemic / organ weight / spleen / relative to body weight + systemic / pathology microscopic…
[34] = group: parental, systemic / organ weight / spleen / relative to body weight
[35] = group: developmental, developmental / developmental malformation / heart / atrial septum defect
[36] = group: maternal, systemic / in life observation / body weight / body weight gain + systemic / in life observation / food consumption / food consumption
[37] = group: developmental, developmental / developmental malformation / bone / wavy + developmental / developmental malformation / kidney / [other] + developmental / …
[38] = group: maternal, reproductive / reproductive performance / resorptions / resorptions + systemic / in life observation / body weight / body weight gain + …
[39] = reproductive / offspring survival early / birth index / birth index + reproductive / reproductive performance / gestational length / …
[40] = systemic / in life observation / body weight / offspring (pup) weight + systemic / organ weight / thymus / relative to body weight
[41] = systemic / hematology / methemoglobin / methemoglobin
[42] = systemic / hematology / methemoglobin / methemoglobin + systemic / clinical chemistry / urea nitrogen / urea nitrogen
[43] = systemic / in life observation / body weight / body weight + systemic / pathology microscopic / stomach / hyperplasia
[44] = systemic / in life observation / water consumption / water consumption
[45] = group: maternal, reproductive / reproductive performance / estrous cycle / length
[46] = group: systemic, systemic / in life observation / body weight / body weight + systemic / in life observation / body weight / body weight gain + systemic / …
[47] = systemic / hematology / methemoglobin / methemoglobin + systemic / in life observation / body weight / body weight gain + systemic / in life…

`COCc1nnc(-c2ccc[n+]([O-])c2)n1-c1c(Cl)c(Cl)cc2[nH]c(=O)c(=O)[nH]c12` was tested, and the LEL [1] was 20 mg/kg/day, the LOAEL [1] was > 20 mg/kg/day and the NEL [1] was < 20 mg/kg/day. For the same molecule, the NOAEL [1] was ≥ 20 mg/kg/day.
`CSC(=O)c1cccc2nnsc12` [Acibenzolar-S-methyl] gave an LEL [2] of 234 mg/kg/day, an LOAEL [2] of 234 mg/kg/day and an NEL [2] of 10.8 mg/kg/day. The NOAEL [2] was 10.8 mg/kg/day, the LEL ([3]; systemic / clinical chemistry / sodium / sodium) was 126 mg/kg/day and the LOAEL [3, 23] was 516 mg/kg/day. For the same molecule, the NEL [3, 23] was 24.6 mg/kg/day, the NOAEL [3, 23] was 126 mg/kg/day and the LOAEL [4, 24] was 312 mg/kg/day. The NOAEL [4, 24] was 96.9 mg/kg/day, the LEL [4, 25] was 0.9 mg/kg/day and the NEL [4, 25] was < 0.9 mg/kg/day. For the same molecule, the LEL [5] was 200 mg/kg/day, the LOAEL [5] was 200 mg/kg/day and the NEL [5] was 25 mg/kg/day. For the same molecule, the NOAEL [5] was 25 mg/kg/day, the LOAEL [6, 26] was 200 mg/kg/day and the NEL [6, 26] was 10 mg/kg/day. It also gave an NOAEL [6, 26] of 50 mg/kg/day, an LEL ([6]; systemic / organ weight / liver / absolute + systemic / organ weight / liver / relative to body weight) of 50 mg/kg/day and an LEL [7, 27] of 10 mg/kg/day. For the same molecule, the LOAEL [7, 27] was 10 mg/kg/day, the NEL [7, 27] was < 10 mg/kg/day and the NOAEL [7, 27] was < 10 mg/kg/day. For the same molecule, the LEL [7, 28] was 50 mg/kg/day, the LOAEL [7, 28] was 400 mg/kg/day and the NEL [7, 29] was 10 mg/kg/day. For the same molecule, the NOAEL [7, 29] was 200 mg/kg/day, the LEL [8, 30] was 47.4 mg/kg/day and the NEL [8, 30] was < 47.4 mg/kg/day. For the same molecule, the LOAEL [8, 31] was 152 mg/kg/day, the NOAEL [8, 31] was 30.6 mg/kg/day and the LEL [9, 32] was 100 mg/kg/day. It also gave an LOAEL [9, 32] of 100 mg/kg/day, an NEL [9, 32] of 10 mg/kg/day and an NOAEL [9, 32] of 10 mg/kg/day. For the same molecule, the LOAEL [9, 33] was 100 mg/kg/day, the NOAEL [9, 33] was 10 mg/kg/day and the LEL [9, 34] was 1 mg/kg/day. For the same molecule, the NEL [9, 34] was < 1 mg/kg/day.
For `O=B[O-].O=B[O-].[Ba+2]` [Barium metaborate], the LEL [10] was 349 mg/kg/day, the LOAEL [10] was 349 mg/kg/day and the NEL [10] was 70 mg/kg/day. The NOAEL [10] was 70 mg/kg/day, the LEL [11] was 881 mg/kg/day and the LOAEL [11] was 881 mg/kg/day. For the same molecule, the NEL [11] was 459 mg/kg/day and the NOAEL [11] was 459 mg/kg/day.
`Cl.O=C(c1ccc(OCCN2CCCCC2)cc1)c1c(-c2ccc(O)cc2)sc2cc(O)ccc12` [Raloxifene hydrochloride] was tested, and the LEL [12, 35] was 0.1 mg/kg/day, the LOAEL [12, 35] was > 10 mg/kg/day and the NEL [12, 35] was < 0.1 mg/kg/day. For the same molecule, the NOAEL [12, 35] was ≥ 10 mg/kg/day, the LEL [12, 36] was 10 mg/kg/day and the LOAEL [12, 36] was > 10 mg/kg/day. The NEL [12, 36] was 1 mg/kg/day, the NOAEL [12, 36] was ≥ 10 mg/kg/day and the LEL ([13]; group: developmental, developmental / developmental malformation / bone / wavy + developmental / developmental malformation / kidney / [other]) was 1 mg/kg/day. The LOAEL [13, 37] was > 10 mg/kg/day, the NEL [13, 37] was 0.1 mg/kg/day and the NOAEL [13, 37] was ≥ 10 mg/kg/day. The LOAEL [13, 38] was > 10 mg/kg/day, the NOAEL [13, 38] was ≥ 10 mg/kg/day and the LEL [13, 36] was 0.1 mg/kg/day. For the same molecule, the NEL [13, 36] was < 0.1 mg/kg/day, the LOAEL [14, 39] was > 10 mg/kg/day and the NOAEL [14, 39] was ≥ 10 mg/kg/day. The LEL [14, 40] was 0.1 mg/kg/day and the NEL [14, 40] was < 0.1 mg/kg/day.
With `O=N[O-].[Na+]` [Sodium nitrite] the LEL [15] was 125 mg/kg/day, the LOAEL [15] was > 125 mg/kg/day and the NEL [15] was 62.5 mg/kg/day. For the same molecule, the NOAEL [15] was ≥ 125 mg/kg/day, the LEL [16] was 100 mg/kg/day and the LOAEL [16] was > 250 mg/kg/day. For the same molecule, the NEL [16] was < 100 mg/kg/day, the NOAEL [16] was ≥ 250 mg/kg/day and the LOAEL [17, 41] was 30 mg/kg/day. For the same molecule, the NOAEL [17, 41] was < 30 mg/kg/day, the LEL [17, 42] was 30 mg/kg/day and the NEL [17, 42] was < 30 mg/kg/day. The LOAEL [18, 43] was 130 mg/kg/day, the NOAEL ([18]; systemic / in life observation / body weight / body weight + systemic / pathology microscopic / stomach / hyperplasia + systemic / in life …) was 70 mg/kg/day and the LEL [18, 44] was 35 mg/kg/day. For the same molecule, the NEL [18, 44] was < 35 mg/kg/day, the LEL [19] was 12.5 mg/kg/day and the LOAEL [19] was > 25 mg/kg/day. For the same molecule, the NEL [19] was 6.25 mg/kg/day, the NOAEL [19] was ≥ 25 mg/kg/day and the LOAEL [20, 43] was 165 mg/kg/day. For the same molecule, the NOAEL ([20]; systemic / in life observation / body weight / body weight + systemic / pathology microscopic / stomach / hyperplasia + systemic / pathology…) was 90 mg/kg/day, the LEL [20, 44] was 45 mg/kg/day and the NEL [20, 44] was < 45 mg/kg/day. For the same molecule, the LEL [21, 45] was 445 mg/kg/day, the LOAEL [21, 45] was > 1230 mg/kg/day and the NEL [21, 45] was 240 mg/kg/day. The NOAEL [21, 45] was ≥ 1230 mg/kg/day, the LOAEL [21, 46] was 990 mg/kg/day and the NEL [21, 46] was 190 mg/kg/day. The NOAEL [21, 46] was 750 mg/kg/day, the LEL ([21]; group: systemic, systemic / in life observation / water consumption / water consumption) was 345 mg/kg/day and the LOAEL [22, 47] was > 500 mg/kg/day. The NEL [22, 47] was 125 mg/kg/day, the NOAEL [22, 47] was ≥ 500 mg/kg/day and the LEL ([22]; systemic / hematology / methemoglobin / methemoglobin + systemic / in life observation / mortality / mortality + systemic / pathology gross…) was 250 mg/kg/day.
